What was measured:
Type in all cases: cell-based, human
KM-H2 cells = test: [3H]-thymidine incorporation in KM-H2 cells after CSF-1 inhibition; conditions: 80 μg/ml, pulsed after 24 h
Experimental: FIG. 3. HRS cells depend on CSF1R activity. (A) L540Cy cells were left untreated (−) or treated with the indicated amounts rhCSF-1 (closed bars) or the respective control (open bars) under serum reduced conditions (1% FCS). After 48 hours, cells were pulsed with 1 μCi [^3H]-thymidine per well for a further 20 hours, and [^3H]-thymidine incorporation was determined cpm, counts per minute. Data are represented as mean±SD. (3A) [^3H]-thymidine incorporation in L540Cy cells left untreated (−) or treated with the indicated amounts of rhCSF-1 (black bars) or water control (open bars) under serum-reduced conditions (1% FCS) determined after 48 h. Data are represented as means±s.d. […] After 24 hours, cells were pulsed with [^3H]-thymidine incorporation and analyzed as described in (A). […] CSF1R tyrosine phosphorylation was analyzed as described in FIG. 1F. […]
DNA synthesis was determined by [^3H]-thymidine incorporation assays using standard protocols. The percentage of viable and apoptotic cells was determined by annexin V-FITC/propidium iodide (PI) double-staining (Bender MedSystems) and subsequent FACS analysis.
We determined DNA synthesis by [^3H]-thymidine incorporation assays using standard protocols. In case of L540Cy cells (FIG. 1d), after 48 hours, cells were pulsed with 1 μCi [^3H]-thymidine per well for a further 20 hours, and [^3H]-thymidine incorporation was determined. […]

CSF1R = test: rhCSF1-induced CSF1R tyrosine phosphorylation in DEL cells (IP, immunoblot); conditions: preincubation with CSF1R:Fc
Experimental: FIG. 9. (A) Analysis of CSF1 mRNA expression by Northern blot in various cell lines, as indicated. Expression of GAPDH was analyzed as a control. Note, that Hodgkin cell lines overexpress two splice variants compared to control cell lines Reh, Namalwa and BL60, which lack CSF1 expression. (B) To test the functionality of the decoy-receptor-like CSF1R:Fc inhibitor, anaplastic large cell lymphoma derived DEL cells, which show an abundant CSF1R expression (Mathas, S. et al., PNAS 106, 5831-5836 (2009)), were left untreated or stimulated with rhCSF1 with or without preincubation with CSF1R:Fc or the respective IgG1:Fc control. Thereafter, IP was performed with a CSF1R-specific antibody or the respective isotype control (IC), and CSF1R tyrosine phosphorylation was detected by immunoblot with antibody to phospho-tyrosine (p-Tyr; upper panel). As a control, the membrane was reprobed with antibody to CSF1R (lower panel). Note, that CSF1R:Fc prevents rhCSF-1 induced CSF1R phosphorylation.

[1] = test system: canonical and non-canonical CSF1R transcripts; test: RT-PCR of canonical and non-canonical CSF1R transcripts in Reh and Namalwa cells; conditions: single agent
Experimental: FIG. 7. Analysis of CSF1R LTR DNA methylation and CBFA2T3 expression. Expression of the transcriptional corepressor CBFA2T3 is lost in HRS cells. (A) Activation of the non-canonical CSF1R transcripts following treatment with TSA and/or 5-aza-dC. The non-HRS cell lines Reh and Namalwa were left untreated or treated with 5-aza-dC, TSA, or 5-aza-dC in combination with TSA. The expression of canonical and non-canonical CSF1R transcripts was analyzed by RT-PCR. The analysis of KM-H2 cells and of GAPDH expression were used as controls. (7A) Analysis of canonical and noncanonical CSF1R transcripts following treatment of Reh and Namalwa cells with TSA and/or 5-aza-dC. […] The expression of both canonical (+720 to +1,325) and noncanonical (−5,090 to +148 and −6152 to −143) CSF1R transcripts was analyzed by RT-PCR. […] GAPDH expression was analyzed as a control. […] (B) Various cell lines and primary CD19^+ human tonsilar B cells were analyzed for expression of CBFA2T3 mRNA by RT-PCR (upper panel) and protein by Western blotting (WB; lower panel) expression. […] Expression of GAPDH and β-actin were analyzed as controls. […] GAPDH and beta-actin expression were analyzed as controls. n.s., non-specific. […] Schematic overview of the regions analyzed for DNA methylation (upper panel) and results of bisulfite pyrosequencing in lymphoma/leukemia cell lines and controls (lower panel). […]

Row | Compound | [3H]-thymidine incorporation (KM-H2 cells) | rhCSF-1 induced CSF1R phosphorylation (CSF1R) | induction of canonical and non-canonical CSF1R transcripts [1]
1 | CSF1R:Fc: decoy-receptor-like inhibitor that binds to and neutralizes CSF-1 (329-MR, R&D Systems) | strong reduction | prevents | –
2 | CC(/C=C/C(=O)NO)=C\[C@@H](C)C(=O)c1ccc(N(C)C)cc1 [TSA, Trichostatin A] | – | – | weakly induced
3 | Nc1ncn([C@H]2C[C@H](O)[C@@H](CO)O2)c(=O)n1 [Compound 5-aza-dC, 5-aza-2′-deoxycytidine] | – | – | weakly induced

Source: US20120277281A1, “POLYNUCLEOTIDES FOR MEDICAL USE” (MAX-DELBRÜCK-CENTRUM FÜR MOLEKULARE MEDIZIN, priority 2009, published 2012)
